Test results published in patent US9617283B2, “Bicyclic heterocycle compounds and their uses in therapy” (ASTEX THERAPEUTICS LIMITED, priority 2012, dated 2017).
Structures can show the parent of a compound that is named as a salt. Where two headings read alike, the source gives them in different places.

Legend:
[1] = target: T1, BIR3 domain of human XIAP (residues 252-350) (Homo sapiens, UniProt P98170); assay: XIAP in vitro competitive displacement binding assay (fluorescence polarization); conditions: 1 h, percent inhibition (PI) at 0.04 μM; read-out: Xiap IC50 or PI μM
T1 construct: BIR3 domain of human XIAP (residues 252-350); His-tag (cleaved yes); made in house; host or cells: Escherichia coli
T1 sequence (P98170 252-350): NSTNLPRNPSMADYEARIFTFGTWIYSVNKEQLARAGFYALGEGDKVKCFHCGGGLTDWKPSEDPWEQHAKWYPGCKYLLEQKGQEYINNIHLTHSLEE

[2] = test system: EVSA-T (human breast carcinoma); assay: Anti-proliferative activity, Alamar Blue assay, EVSA-T; format: cell-based
Method: Anti-Proliferative Activity
The method is based on the ability of viable cells to reduce resazurin to its fluorescent product resorufin. For each proliferation assay cells are plated onto 96 well plates and allowed to recover for 16 hours prior to the addition of inhibitor compounds (in 0.1% DMSO v/v) for a further 72 hours. […] The anti-proliferative activities of compounds of the invention can be determined by measuring the ability of the compounds to inhibit growth in 3 cancer cell lines: • EVSA-T (human breast carcinoma) DSMZ cat. no.

[3] = Homo sapiens, EVSA-T, read-out: EC50 in EVSA-T cell line assays
[4] = Homo sapiens, EVSA-T, 72 h, EVSA-T cell line, 72 hours, Alamar Blue; read-out: EVSA-T prolif
[5] = Homo sapiens, EVSA-T; read-out: EC50 in EVSA-T cell line assays

SMILES | inhibition at 0.04 µM [1] [%] | EVSA-T prolif μM ([2]; EVSA-T cell line, % at 0.001 μM) [% at] | EC50 [2, 3] [nM] | EC50 [2, 4] [nM] | EC50 [2, 5] [nM]
C[C@@H]1CN(CC(=O)N2CC(C)(C)c3cnc(Cc4ccc(F)cc4)cc32)[C@@H](CN2Cc3ncccc3C2=O)CN1 [Example 20, 6-{[(2R,5R)-1-(2-{6-[(4-Fluorophenyl)methyl]-3,3-dimethyl-1H,2H,3H-pyrrolo[3,2-c]pyridin-1-yl}-2-oxoethyl)-5-methylpiperazin-2-yl]methyl}-5H,6H,7H-pyrrolo[3,4-b]pyridin-5-one, dihydrochloride] | 76 | 92 | < 1000 |  | 
C[C@@H]1CN(CC(=O)N2CC(C)(C)c3ncc(Cc4ccc(F)cc4)cc32)[C@@H](CN2CCCCC2=O)CN1 [Example 21, 1-{[(2R,5R)-1-(2-{6-[(4-Fluorophenyl)methyl]-3,3-dimethyl-1H,2H,3H-pyrrolo[3,2-b]pyridin-1-yl}-2-oxoethyl)-5-methylpiperazin-2-yl]methyl}piperidin-2-one, dihydrochloride] | 44 |  | < 1000 | 2.1 | 
CC1=C(C)C(=O)N(C[C@H]2CN[C@H](C)CN2CC(=O)N2CC(C)(C)c3ncc(Cc4ccc(F)cc4F)cc32)C1 [Example 24, 1-{[(2R,5R)-1-(2-{6-[(2,4-Difluorophenyl)methyl]-3,3-dimethyl-1H,2H,3H-pyrrolo[3,2-b]pyridin-1-yl}-2-oxoethyl)-5-methylpiperazin-2-yl]methyl}-3,4-dimethyl-2,5-dihydro-1H-pyrrol-2-one, dihydrochloride] | 72 |  |  | 1.7 | < 1000
CCCC(F)(F)c1cc2c(cn1)C(C)(C)CN2C(=O)CN1C[C@@H](C)NC[C@@H]1CN1C[C@H](C)OCC1=O [Example 26, (6S)-4-{[(2R,5R)-1-{2-[6-(1,1-Difluorobutyl)-3,3-dimethyl-1H,2H,3H-pyrrolo[3,2-c]pyridin-1-yl]-2-oxoethyl}-5-methylpiperazin-2-yl]methyl}-6-methylmorpholin-3-one, dihydrochloride] | 60 |  |  | 27 | < 1000
CCCC(F)(F)c1cc2c(cn1)C(C)(C)CN2C(=O)CN1C[C@@H](C)NC[C@@H]1CN1Cc2ccccc2C1=O [Example 27, 2-{[(2R,5R)-1-{2-[6-(1,1-Difluorobutyl)-3,3-dimethyl-1H,2H,3H-pyrrolo[3,2-c]pyridin-1-yl]-2-oxoethyl}-5-methylpiperazin-2-yl]methyl}-2,3-dihydro-1H-isoindol-1-one, dihydrochloride] | 75 |  |  | 5.2 | < 1000
CCCC(F)(F)c1cc2c(cn1)C(C)(C)CN2C(=O)CN1C[C@@H](C)NC[C@@H]1CN1CC(C)=C(C)C1=O [Example 28, 1-{[(2R,5R)-1-{2-[6-(1,1-Difluorobutyl)-3,3-dimethyl-1H,2H,3H-pyrrolo[3,2-c]pyridin-1-yl]-2-oxoethyl}-5-methylpiperazin-2-yl]methyl}-3,4-dimethyl-2,5-dihydro-1H-pyrrol-2-one, dihydrochloride] | 67 |  |  | 10 | < 1000
C[C@@H]1CN(CC(=O)N2CC(C)(C)c3ncc(Cc4ccc(F)cc4F)cc32)[C@@H](CN2CC(C)(C)CC2=O)CN1 [Example 30, 1-{[(2R,5R)-1-(2-{6-[(2,4-Difluorophenyl)methyl]-3,3-dimethyl-1H,2H,3H-pyrrolo[3,2-b]pyridin-1-yl}-2-oxoethyl)-5-methylpiperazin-2-yl]methyl}-4,4-dimethylpyrrolidin-2-one dihydrochloride] | 70 |  | < 1000 | 1.1 | 
C[C@@H]1CN(CC(=O)N2CC(C)(C)c3cnc(Cc4ccc(F)cc4F)cc32)[C@@H](CN2CC(C)(C)CC2=O)CN1 [Example 32, 1-{[(2R,5R)-1-(2-{6-[(2,4-Difluorophenyl)methyl]-3,3-dimethyl-1H,2H,3H-pyrrolo[3,2-c]pyridin-1-yl}-2-oxoethyl)-5-methylpiperazin-2-yl]methyl}-4,4-dimethylpyrrolidin-2-one dihydrochloride] | 71 |  |  | 1.3 | < 1000
CC1=C(C)C(=O)N(C[C@H]2CN[C@H](C)CN2CC(=O)N2CC(C)(C)c3cnc(Cc4ccc(F)cc4F)cc32)C1 [Example 33, 1-{[(2R,5R)-1-(2-{6-[(2,4-Difluorophenyl)methyl]-3,3-dimethyl-1H,2H,3H-pyrrolo[3,2-c]pyridin-1-yl}-2-oxoethyl)-5-methylpiperazin-2-yl]methyl}-3,4-dimethyl-2,5-dihydro-1H-pyrrol-2-one dihydrochloride] | 81 |  |  | 1.1 | < 1000
CC1=C(C)C(=O)N(C[C@H]2CN[C@H](C)CN2CC(=O)N2CC(C)(C)c3cnc(Cc4ccc(F)cc4)cc32)C1 [Example 36, 1-{[(2R,5R)-1-(2-{6-[(4-Fluorophenyl)methyl]-3,3-dimethyl-1H,2H,3H-pyrrolo[3,2-c]pyridin-1-yl}-2-oxoethyl)-5-methylpiperazin-2-yl]methyl}-3,4-dimethyl-2,5-dihydro-1H-pyrrol-2-one dihydrochloride] | 74 |  |  | 1.7 | < 1000
CCCC(F)(F)c1cc2c(cn1)C(C)(C)CN2C(=O)CN1C[C@@H](C)NC[C@@H]1CN1CC(C)(C)CC1=O [Example 38, 1-{[(2R,5R-1-{2-[6-(1,1-Difluorobutyl)-3,3-dimethyl-1H,2H,3H-pyrrolo[3,2-c]pyridin-1-yl]-2-oxoethyl}-5-methylpiperazin-2-yl]methyl}-4,4-dimethylpyrrolidin-2-one dihydrochloride] | 76 |  |  | 13 | < 1000
CC1=C(C)C(=O)N(C[C@H]2CN[C@H](C)CN2CC(=O)N2CC(C)(C)c3nnc(Cc4ccc(F)cc4F)cc32)C1 [Example 50, 1-{[(2R,5R)-1-(2-{3-[(2,4-Difluorophenyl)methyl]-7,7-dimethyl-5H,6H,7H-pyrrolo[3,2-c]pyridazin-5-yl}-2-oxoethyl)-5-methylpiperazin-2-yl]methyl}-3,4-dimethyl-2,5-dihydro-1H-pyrrol-2-one L-lactate] | 66 |  |  | 1.2 | < 1000
CC1=C(C)C(=O)N(C[C@H]2CN[C@H](C)CN2CC(=O)N2CC(C)(C)c3nnc(Cc4ccc(F)cc4)cc32)C1 [Example 51, 1-{[(2R,5R)-1-(2-{3-[(4-Fluorophenyl)methyl]-7,7-dimethyl-5H,6H,7H-pyrrolo[3,2-c]pyridazin-5-yl}-2-oxoethyl)-5-methylpiperazin-2-yl]methyl}-3,4-dimethyl-2,5-dihydro-1H-pyrrol-2-one L-lactate] | 48 |  |  | 4.9 | < 1000
CCCC(F)(F)c1cc2c(nn1)C(C)(C)CN2C(=O)CN1C[C@@H](C)NC[C@@H]1CN1Cc2ccccc2C1=O [Example 59, 2-{[(2R,5R)-1-{2-[3-(1,1-Difluorobutyl)-7,7-dimethyl-5H,6H,7H-pyrrolo[3,2-c]pyridazin-5-yl]-2-oxoethyl}-5-methylpiperazin-2-yl]methyl}-2,3-dihydro-1H-isoindol-1-one dihydrochloride] | 68 |  |  | 1.6 | < 1000
C[C@@H]1CN(CC(=O)N2CC(C)(C)c3cnc(Cc4ccc(F)cc4)cc32)[C@@H](CN2Cc3ccccc3C2=O)CN1 [Example 60, 2-{[(2R,5R)-1-(2-{6-[(4-Fluorophenyl)methyl]-3,3-dimethyl-1H,2H,3H-pyrrolo[3,2-c]pyridin-1-yl}-2-oxoethyl)-5-methylpiperazin-2-yl]methyl}-2,3-dihydro-1H-isoindol-1-one dihydrochloride] | 94 |  |  | 0.29 | < 1000
CCCC(F)(F)c1cc2c(cn1)C(C)(C)CN2C(=O)CN1C[C@@H](C)NC[C@@H]1CN1Cc2ncccc2C1=O [Example 68, 6-{[(2R,5R)-1-{2-[6-(1,1-Difluorobutyl)-3,3-dimethyl-1H,2H,3H-pyrrolo[3,2-c]pyridin-1-yl]-2-oxoethyl}-5-methylpiperazin-2-yl]methyl}-5H,6H,7H-pyrrolo[3,4-b]pyridin-5-one dihydrochloride] | 72 |  |  | 2.4 | < 1000
C[C@@H]1CN(CC(=O)N2CC(C)(C)c3cnc(Cc4ccc(F)cc4F)cc32)[C@@H](CN2C[C@@H](C)OCC2=O)CN1 [Example 69, (6R)-4-{[(2R,5R)-1-(2-{6-[(2,4-Difluorophenyl)methyl]-3,3-dimethyl-1H,2H,3H-pyrrolo[3,2-c]pyridin-1-yl}-2-oxoethyl)-5-methylpiperazin-2-yl]methyl}-6-methylmorpholin-3-one dihydrochloride] | 68 |  |  | 2.6 | < 1000
C[C@@H]1CC(=O)N(C[C@H]2CN[C@H](C)CN2CC(=O)N2CC(C)(C)c3ncc(Cc4ccc(F)cc4F)cc32)C1 [Example 70, (4R)-1-{[(2R,5R)-1-(2-{6-[(2,4-Difluorophenyl)methyl]-3,3-dimethyl-1H,2H,3H-pyrrolo[3,2-b]pyridin-1-yl}-2-oxoethyl)-5-methylpiperazin-2-yl]methyl}-4-methylpyrrolidin-2-one dihydrochloride] | 55 |  |  | 3.2 | < 1000
C[C@@H]1CC(=O)N(C[C@H]2CN[C@H](C)CN2CC(=O)N2CC(C)(C)c3cnc(Cc4ccc(F)cc4F)cc32)C1 [Example 71, (4R)-1-{[(2R,5R)-1-(2-{6-[(2,4-Difluorophenyl)methyl]-3,3-dimethyl-1H,2H,3H-pyrrolo[3,2-c]pyridin-1-yl}-2-oxoethyl)-5-methylpiperazin-2-yl]methyl}-4-methylpyrrolidin-2-one dihydrochloride] | 64 |  |  | 2.5 | < 1000
